Data as given in patent publication US8486892B2, “Blood coagulation factor inhibitors” (Novo Nordisk Health Care AG, priority 2008, dated 2013).

Target: T1, 40K-PEG-rFVIIa (Homo sapiens, UniProt P08709)
T1 construct: Typically, Factor VII is cleaved between residues 152 and 153 to yield Factor VIIa; 40K-PEG (about 40 kDa PEG on a glycan)
T1 sequence (P08709 213-466 limits assumed): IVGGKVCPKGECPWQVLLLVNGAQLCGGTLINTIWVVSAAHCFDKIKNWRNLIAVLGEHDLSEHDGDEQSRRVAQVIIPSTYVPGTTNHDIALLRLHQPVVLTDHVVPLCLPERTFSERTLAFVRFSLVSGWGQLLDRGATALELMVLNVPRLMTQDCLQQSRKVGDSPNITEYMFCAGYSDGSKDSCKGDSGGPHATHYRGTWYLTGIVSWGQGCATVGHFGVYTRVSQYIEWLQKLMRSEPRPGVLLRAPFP
T1 sequence (P08709 61-212 limits assumed): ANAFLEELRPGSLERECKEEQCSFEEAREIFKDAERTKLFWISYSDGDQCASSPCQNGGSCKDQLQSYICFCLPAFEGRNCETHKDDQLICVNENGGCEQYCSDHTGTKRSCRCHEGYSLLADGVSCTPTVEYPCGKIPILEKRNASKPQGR
Assay: Stability experiment on 40K-PEG-rFVIIa in solution, clot activity by One-stage Coagulation Assay (Assay 4)
Assay type: biochemical
Settings: 20 mg/ml 40K-PEG-rFVIIa, pH 7.0, 3 months at 25° C.
Protocol: Factor VII polypeptides may also be assayed for specific activities (“clot activity”) by using a one-stage coagulation assay (Assay 4). For this purpose, the sample to be tested is diluted in 50 mM PIPES-buffer (pH 7.2), 1% BSA and 40 μl is incubated with 40 μl of Factor VII deficient plasma and 80 μl of human recombinant tissue factor containing 10 mM Ca^2+ and synthetic phospholipids. Coagulation times (clotting times) are measured and compared to a standard curve using a reference standard in a parallel line assay.
In order to investigate the stabilizing effect of the compounds described by the current invention on Factor VIIa molecules in solution, a stability experiment was performed on 40K-PEG-rFVIIa.
The investigated formulations contained 0, 1, 10 or 30 mM n-propyloxycarbonyl-Phe(4-amidino)-Glu-Asn-Cha-(OEG)5-NH2, and all contained 20 mg/ml 40K-PEG-rFVIIa, 20 mM histidine, pH 7.0, 6% sucrose, 20 mM CaCl2, 0.5 mg/ml methionine. The samples were incubated 3 months at 25° C., and analysed for clot activity using the above-described “One-stage Coagulation Assay” (Assay 4) (see section “General Methods”).

Propyloxycarbonyl-(4-amidino-Phe)-Glu-Asn-Cha-[HN—(CH2—CH2—O)2—(CH2)—C(═O)]5—NH2 [Example 1]
Clot activity relative to the initial value (1 mM inhibitor): 18% | Clot activity relative to the initial value (10 mM inhibitor): 86% | Clot activity relative to the initial value (30 mM inhibitor): 89%
